Laboratory results: ChEMBL document CHEMBL3137667, “[Drug-induced liver injury; fourteenth updated edition of the bibliographic database of liver injuries and related drugs]” (Gastroenterol Clin Biol, 2004)

Columns and labels:
[1] = human
[2] = human; remark: listed apart in the source
[3] = human; remark: listed apart in the source
[4] = human, serum, 4383 h
[5] = human, serum
[6] = human; remark: listed apart in the source
[7] = human; remark: listed apart in the source
[8] = human; remark: listed apart in the source
[9] = human; remark: listed apart in the source
[10] = Highest frequency of moderate liver toxicity observed during clinical trials, expressed as a percentage. [column '% BIOL' in source]; details: human
[11] = Highest frequency of acute liver toxicity observed during clinical trials, expressed as a percentage. [column '% AIGUE' in source]; details: human
[12] = human; remark: listed apart in the source
[13] = human, serum; remark: listed apart in the source
[14] = human; remark: listed apart in the source
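Wherever Hepatotoxicity (association with vascular disease) is given: count of indexed literature references reporting vascular liver injury in humans, e.g. peliosis hepatitis, hepatic veno-occlusive disease or Budd-Chiari syndrome.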
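Wherever Hepatotoxicity (benign tumour) is given: value is a count of indexed literature references citing a benign tumour confirmed by histopathology.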
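Wherever Hepatotoxicity (choleostasis) is given: human cholestatic liver injury, shown by histopathology or by peak ALT or AST elevation over alkaline phosphatase ratio below 2, value counts indexed literature reports.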
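Wherever Hepatotoxicity (chronic liver disease) is given: chronic liver injury confirmed by histopathology or persistently raised serum aminotransferase activity beyond 6 months, value given as the count of indexed literature references.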
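Wherever Hepatotoxicity (cirrhosis) is given: value is a count of indexed literature references reporting cirrhosis confirmed by histopathology.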
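Wherever Hepatotoxicity (cytolytic) is given: human cytolytic liver injury, shown by histopathology or by a ratio above 5 of peak ALT or AST elevation to alkaline phosphatase elevation, value counts indexed references.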
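Wherever Hepatotoxicity (granulomatous hepatitis) is given: value is a count of indexed literature references reporting granulomatous liver disease confirmed by histopathology.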
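Wherever Hepatotoxicity (malignant tumour) is given: malignant tumour confirmed by histopathology, value gives the count of indexed literature references reporting it.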
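Wherever Hepatotoxicity (severe hepatitis) is given: human clinical data: severe hepatitis, meaning potentially life-threatening liver failure or clinically observed cases, the value counts how many indexed literature references report it.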
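Wherever Hepatotoxicity (steatosis) is given: steatosis confirmed by histopathology, value is the count of indexed references.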

Cc1cccc(Nc2ccncc2S(=O)(=O)NC(=O)NC(C)C)c1 [TORSEMIDE]
Hepatotoxicity (choleostasis) [1]: 0
Hepatotoxicity (benign tumour) [2]: 0
Hepatotoxicity (association with vascular disease) [3]: 0
Hepatotoxicity (chronic liver disease) [4]: 0
Hepatotoxicity (moderate) [5]: 1
Hepatotoxicity (severe hepatitis) [6]: 0
Hepatotoxicity (malignant tumour) [7]: 0
Hepatotoxicity (steatosis) [8]: 0
Hepatotoxicity (granulomatous hepatitis) [9]: 0
Hepatotoxicity (moderate) [10]: 0.6%
Hepatotoxicity (acute) [11]: 0%
Hepatotoxicity (cytolytic) [12]: 0
Hepatotoxicity (acute) [13]: 0
Hepatotoxicity (cirrhosis) [14]: 0

CC[C@@]1(O)C(=O)OCc2c1cc1n(c2=O)Cc2cc3c(CN(C)C)c(O)ccc3nc2-1 [TOPOTECAN]
Hepatotoxicity (choleostasis) [1]: 0
Hepatotoxicity (benign tumour) [2]: 0
Hepatotoxicity (association with vascular disease) [3]: 0
Hepatotoxicity (chronic liver disease) [4]: 0
Hepatotoxicity (moderate) [5]: 1
Hepatotoxicity (severe hepatitis) [6]: 0
Hepatotoxicity (malignant tumour) [7]: 0
Hepatotoxicity (steatosis) [8]: 0
Hepatotoxicity (granulomatous hepatitis) [9]: 0
Hepatotoxicity (moderate) [10]: 5.3%
Hepatotoxicity (acute) [11]: 0%
Hepatotoxicity (cytolytic) [12]: 0
Hepatotoxicity (acute) [13]: 0
Hepatotoxicity (cirrhosis) [14]: 0

CN1C(CSCC(F)(F)F)Nc2cc(Cl)c(S(N)(=O)=O)cc2S1(=O)=O (centres undefined) [POLYTHIAZIDE]
Hepatotoxicity (choleostasis) [1]: 1
Hepatotoxicity (benign tumour) [2]: 0
Hepatotoxicity (association with vascular disease) [3]: 0
Hepatotoxicity (chronic liver disease) [4]: 0
Hepatotoxicity (moderate) [5]: 0
Hepatotoxicity (severe hepatitis) [6]: 0
Hepatotoxicity (malignant tumour) [7]: 0
Hepatotoxicity (steatosis) [8]: 0
Hepatotoxicity (granulomatous hepatitis) [9]: 0
Hepatotoxicity (moderate) [10]: 0%
Hepatotoxicity (acute) [11]: 0%
Hepatotoxicity (cytolytic) [12]: 1
Hepatotoxicity (acute) [13]: 1
Hepatotoxicity (cirrhosis) [14]: 0

CC(CCC(=O)O)C1CC[C@H]2[C@@H]3CC[C@@H]4C[C@H](O)CC[C@]4(C)[C@H]3CC[C@]12C (some centres undefined)
Hepatotoxicity (choleostasis) [1]: 0
Hepatotoxicity (benign tumour) [2]: 0
Hepatotoxicity (association with vascular disease) [3]: 0
Hepatotoxicity (chronic liver disease) [4]: 0
Hepatotoxicity (moderate) [5]: 1
Hepatotoxicity (severe hepatitis) [6]: 0
Hepatotoxicity (malignant tumour) [7]: 0
Hepatotoxicity (steatosis) [8]: 0
Hepatotoxicity (granulomatous hepatitis) [9]: 0
Hepatotoxicity (moderate) [10]: 11.1%
Hepatotoxicity (acute) [11]: 0%
Hepatotoxicity (cytolytic) [12]: 0
Hepatotoxicity (acute) [13]: 0
Hepatotoxicity (cirrhosis) [14]: 0

EPOETIN ALFA
Hepatotoxicity (choleostasis) [1]: 0
Hepatotoxicity (benign tumour) [2]: 0
Hepatotoxicity (association with vascular disease) [3]: 0
Hepatotoxicity (chronic liver disease) [4]: 0
Hepatotoxicity (moderate) [5]: 4
Hepatotoxicity (severe hepatitis) [6]: 0
Hepatotoxicity (malignant tumour) [7]: 0
Hepatotoxicity (steatosis) [8]: 0
Hepatotoxicity (granulomatous hepatitis) [9]: 0
Hepatotoxicity (moderate) [10]: 20%
Hepatotoxicity (acute) [11]: 0%
Hepatotoxicity (cytolytic) [12]: 0
Hepatotoxicity (acute) [13]: 0
Hepatotoxicity (cirrhosis) [14]: 0

CC(=O)Nc1c(I)c(NC(C)=O)c(I)c(C(=O)O)c1I [DIATRIZOIC ACID]
Hepatotoxicity (choleostasis) [1]: 0
Hepatotoxicity (benign tumour) [2]: 0
Hepatotoxicity (association with vascular disease) [3]: 0
Hepatotoxicity (chronic liver disease) [4]: 0
Hepatotoxicity (moderate) [5]: 1
Hepatotoxicity (severe hepatitis) [6]: 0
Hepatotoxicity (malignant tumour) [7]: 0
Hepatotoxicity (steatosis) [8]: 0
Hepatotoxicity (granulomatous hepatitis) [9]: 0
Hepatotoxicity (moderate) [10]: 0%
Hepatotoxicity (acute) [11]: 0%
Hepatotoxicity (cytolytic) [12]: 0
Hepatotoxicity (acute) [13]: 0
Hepatotoxicity (cirrhosis) [14]: 0

COc1ccc(CCN(C)CCCOc2ccc(S(=O)(=O)c3c(C(C)C)cn4ccccc34)cc2)cc1OC [FANTOFARONE]
Hepatotoxicity (choleostasis) [1]: 0
Hepatotoxicity (benign tumour) [2]: 0
Hepatotoxicity (association with vascular disease) [3]: 0
Hepatotoxicity (chronic liver disease) [4]: 0
Hepatotoxicity (moderate) [5]: 1
Hepatotoxicity (severe hepatitis) [6]: 0
Hepatotoxicity (malignant tumour) [7]: 0
Hepatotoxicity (steatosis) [8]: 0
Hepatotoxicity (granulomatous hepatitis) [9]: 0
Hepatotoxicity (moderate) [10]: 2.7%
Hepatotoxicity (acute) [11]: 0%
Hepatotoxicity (cytolytic) [12]: 0
Hepatotoxicity (acute) [13]: 0
Hepatotoxicity (cirrhosis) [14]: 0

CCOC(OCC)C(=O)OCC(=O)[C@]1(O)Cc2c(O)c3c(c(O)c2[C@@H](O[C@H]2C[C@H](N)[C@H](O)[C@H](C)O2)C1)C(=O)c1c(OC)cccc1C3=O [DETORUBICIN]
Hepatotoxicity (choleostasis) [1]: 0
Hepatotoxicity (benign tumour) [2]: 0
Hepatotoxicity (association with vascular disease) [3]: 0
Hepatotoxicity (chronic liver disease) [4]: 0
Hepatotoxicity (moderate) [5]: 2
Hepatotoxicity (severe hepatitis) [6]: 0
Hepatotoxicity (malignant tumour) [7]: 0
Hepatotoxicity (steatosis) [8]: 0
Hepatotoxicity (granulomatous hepatitis) [9]: 0
Hepatotoxicity (moderate) [10]: 9.4%
Hepatotoxicity (acute) [11]: 0%
Hepatotoxicity (cytolytic) [12]: 0
Hepatotoxicity (acute) [13]: 0
Hepatotoxicity (cirrhosis) [14]: 0

CC(/C=C1\SC(=S)N(CC(=O)O)C1=O)=C\c1ccccc1
Hepatotoxicity (choleostasis) [1]: 0
Hepatotoxicity (benign tumour) [2]: 0
Hepatotoxicity (association with vascular disease) [3]: 0
Hepatotoxicity (chronic liver disease) [4]: 0
Hepatotoxicity (moderate) [5]: 2
Hepatotoxicity (severe hepatitis) [6]: 1
Hepatotoxicity (malignant tumour) [7]: 0
Hepatotoxicity (steatosis) [8]: 0
Hepatotoxicity (granulomatous hepatitis) [9]: 0
Hepatotoxicity (moderate) [10]: 1%
Hepatotoxicity (acute) [11]: 0%
Hepatotoxicity (cytolytic) [12]: 1
Hepatotoxicity (acute) [13]: 1
Hepatotoxicity (cirrhosis) [14]: 0

CNC1(c2ccccc2Cl)CCCCC1=O (centres undefined) [KETAMINE]
Hepatotoxicity (choleostasis) [1]: 0
Hepatotoxicity (benign tumour) [2]: 0
Hepatotoxicity (association with vascular disease) [3]: 0
Hepatotoxicity (chronic liver disease) [4]: 0
Hepatotoxicity (moderate) [5]: 2
Hepatotoxicity (severe hepatitis) [6]: 0
Hepatotoxicity (malignant tumour) [7]: 0
Hepatotoxicity (steatosis) [8]: 0
Hepatotoxicity (granulomatous hepatitis) [9]: 0
Hepatotoxicity (moderate) [10]: 23.5%
Hepatotoxicity (acute) [11]: 0%
Hepatotoxicity (cytolytic) [12]: 0
Hepatotoxicity (acute) [13]: 0
Hepatotoxicity (cirrhosis) [14]: 0

LOBAPLATIN
Hepatotoxicity (choleostasis) [1]: 0
Hepatotoxicity (benign tumour) [2]: 0
Hepatotoxicity (association with vascular disease) [3]: 0
Hepatotoxicity (chronic liver disease) [4]: 0
Hepatotoxicity (moderate) [5]: 1
Hepatotoxicity (severe hepatitis) [6]: 0
Hepatotoxicity (malignant tumour) [7]: 0
Hepatotoxicity (steatosis) [8]: 0
Hepatotoxicity (granulomatous hepatitis) [9]: 0
Hepatotoxicity (moderate) [10]: 3.7%
Hepatotoxicity (acute) [11]: 0%
Hepatotoxicity (cytolytic) [12]: 0
Hepatotoxicity (acute) [13]: 0
Hepatotoxicity (cirrhosis) [14]: 0

CC(/C=N/NC(=N)N)=N\NC(=N)N [MITOGUAZONE]
Hepatotoxicity (choleostasis) [1]: 0
Hepatotoxicity (benign tumour) [2]: 0
Hepatotoxicity (association with vascular disease) [3]: 0
Hepatotoxicity (chronic liver disease) [4]: 0
Hepatotoxicity (moderate) [5]: 1
Hepatotoxicity (severe hepatitis) [6]: 0
Hepatotoxicity (malignant tumour) [7]: 0
Hepatotoxicity (steatosis) [8]: 0
Hepatotoxicity (granulomatous hepatitis) [9]: 0
Hepatotoxicity (moderate) [10]: 18.2%
Hepatotoxicity (acute) [11]: 0%
Hepatotoxicity (cytolytic) [12]: 0
Hepatotoxicity (acute) [13]: 0
Hepatotoxicity (cirrhosis) [14]: 0

CN1CCN(c2c(F)cc3c(=O)c(C(=O)O)cn(CCF)c3c2F)CC1 [FLEROXACIN]
Hepatotoxicity (choleostasis) [1]: 0
Hepatotoxicity (benign tumour) [2]: 0
Hepatotoxicity (association with vascular disease) [3]: 0
Hepatotoxicity (chronic liver disease) [4]: 0
Hepatotoxicity (moderate) [5]: 13
Hepatotoxicity (severe hepatitis) [6]: 0
Hepatotoxicity (malignant tumour) [7]: 0
Hepatotoxicity (steatosis) [8]: 0
Hepatotoxicity (granulomatous hepatitis) [9]: 0
Hepatotoxicity (moderate) [10]: 8.3%
Hepatotoxicity (acute) [11]: 0%
Hepatotoxicity (cytolytic) [12]: 0
Hepatotoxicity (acute) [13]: 0
Hepatotoxicity (cirrhosis) [14]: 0

O=C(CCCN1CCC(C(=O)c2ccc(F)cc2)CC1)c1ccc(F)cc1 [LENPERONE]
Hepatotoxicity (choleostasis) [1]: 0
Hepatotoxicity (benign tumour) [2]: 0
Hepatotoxicity (association with vascular disease) [3]: 0
Hepatotoxicity (chronic liver disease) [4]: 0
Hepatotoxicity (moderate) [5]: 2
Hepatotoxicity (severe hepatitis) [6]: 0
Hepatotoxicity (malignant tumour) [7]: 0
Hepatotoxicity (steatosis) [8]: 0
Hepatotoxicity (granulomatous hepatitis) [9]: 0
Hepatotoxicity (moderate) [10]: 0%
Hepatotoxicity (acute) [11]: 0%
Hepatotoxicity (cytolytic) [12]: 0
Hepatotoxicity (acute) [13]: 0
Hepatotoxicity (cirrhosis) [14]: 0

OCCN1CCN(CC/C=C2/c3ccccc3Sc3ccc(Cl)cc32)CC1 [ZUCLOPENTHIXOL]
Hepatotoxicity (choleostasis) [1]: 0
Hepatotoxicity (benign tumour) [2]: 0
Hepatotoxicity (association with vascular disease) [3]: 0
Hepatotoxicity (chronic liver disease) [4]: 0
Hepatotoxicity (moderate) [5]: 1
Hepatotoxicity (severe hepatitis) [6]: 0
Hepatotoxicity (malignant tumour) [7]: 0
Hepatotoxicity (steatosis) [8]: 0
Hepatotoxicity (granulomatous hepatitis) [9]: 0
Hepatotoxicity (moderate) [10]: 19%
Hepatotoxicity (acute) [11]: 0%
Hepatotoxicity (cytolytic) [12]: 0
Hepatotoxicity (acute) [13]: 0
Hepatotoxicity (cirrhosis) [14]: 0

C[C@@H]1CN(c2c(F)c(N)c3c(=O)c(C(=O)O)cn(C4CC4)c3c2F)C[C@H](C)N1 [SPARFLOXACIN]
Hepatotoxicity (choleostasis) [1]: 0
Hepatotoxicity (benign tumour) [2]: 0
Hepatotoxicity (association with vascular disease) [3]: 0
Hepatotoxicity (chronic liver disease) [4]: 0
Hepatotoxicity (moderate) [5]: 29
Hepatotoxicity (severe hepatitis) [6]: 0
Hepatotoxicity (malignant tumour) [7]: 0
Hepatotoxicity (steatosis) [8]: 0
Hepatotoxicity (granulomatous hepatitis) [9]: 0
Hepatotoxicity (moderate) [10]: 20%
Hepatotoxicity (acute) [11]: 0%
Hepatotoxicity (cytolytic) [12]: 0
Hepatotoxicity (acute) [13]: 0
Hepatotoxicity (cirrhosis) [14]: 0
